Results: patent publication US20210355154A1, “Halogenated Cholesterol Analogues and Methods of Making and Using Same” (THE REGENTS OF THE UNIVERSITY OF MICHIGAN, priority 2018, published 2021)

System: ApoE mouse
Assay: PET imaging of [^18F]NP-59 in a control BL6 mouse and an ApoE mouse
Assay type: in vivo
Experimental: [^18F]NP-59 was injected into a control BL6 mouse and an ApoE mouse of similar weight. Equivalent activities were injected into each mouse, and PET images taken approximately 60 minutes after injection are shown in FIG. 1. The images are PET maximal intensity projection images in the oblique coronal plane to obtain relevant anatomic structures. In the upper right-hand corner of each image are axial images through the carotid artery.

## CC(C)CCC[C@@H](C)[C@H]1CCC2C3C[C@@H](C[18F])C4=C(CC[C@H](O)C4)C3CC[C@@]21C (stereo partly drawn) [[^18F]NP-59]
ApoE mouse (atherosclerotic disease) vs control BL6 mouse, equivalent activities injected, PET approximately 60 minutes after injection
  differential uptake between the mice (PET): higher uptake in the ApoE mouse
ApoE mouse vs BL6 mouse of similar weight, identical amounts of tracer injected
  background uptake (PET): higher background uptake
BL6 and ApoE mice, PET approximately 60 minutes after injection
  organs showing uptake of the compound (PET images): uptake of the compound in the liver, adrenal glands, and liver
